Test results published in patent US8309734B2 (Hoffmann-La Roche Inc., priority 2008, dated 2012).

Target: T1, human GPBAR1 receptor (Homo sapiens, UniProt Q8TDU6)
T1 construct: expressed in transfected cells
T1 sequence (Q8TDU6 1-330): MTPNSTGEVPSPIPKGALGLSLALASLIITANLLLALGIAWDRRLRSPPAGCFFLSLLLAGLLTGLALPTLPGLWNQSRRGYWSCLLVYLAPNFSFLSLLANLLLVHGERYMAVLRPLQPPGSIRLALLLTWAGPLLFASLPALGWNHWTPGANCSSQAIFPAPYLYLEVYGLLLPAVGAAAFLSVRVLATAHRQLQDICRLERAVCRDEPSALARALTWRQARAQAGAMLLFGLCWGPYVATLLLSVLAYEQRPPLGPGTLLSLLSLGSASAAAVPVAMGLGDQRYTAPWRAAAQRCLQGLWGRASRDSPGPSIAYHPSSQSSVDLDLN
Experiment: functional cAMP assay in CHO-dhfr(minus) cells expressing human GPBAR1 receptors
Format: cell-based
Settings: cAMP increase (TR-FRET) in CHO-dhfr(minus) cells expressing human GPBAR1; compounds incubated 30 min at 30° C.

EC50	SMILES
69 nM	O=C(O)c1ccc(CCc2cc(Cl)c(Oc3ncccc3C(=O)N3CCN(C4CC4)c4ccccc43)cc2Cl)cc1 [Example 170, 4-(2-{2,5-Dichloro-4-[3-(4-cyclopropyl-3,4-dihydro-2H-quinoxaline-1-carbonyl)-pyridin-2-yloxy]-phenyl}-ethyl)-benzoic acid]
102 nM	COc1cc(C(=O)O)ccc1CCc1cc(Cl)c(Oc2ncccc2C(=O)N2CCN(C3CC3)c3ccccc32)cc1Cl [Example 171, 4-(2-{2,5-Dichloro-4-[3-(4-cyclopropyl-3,4-dihydro-2H-quinoxaline-1-carbonyl)-pyridin-2-yloxy]-phenyl}-ethyl)-3-methoxy-benzoic acid]
132 nM	O=C(O)/C=C/c1cc(Cl)c(Oc2ncccc2C(=O)N2CCN(C3CC3)c3ccccc32)cc1Cl [Example 172, 3-{2,5-Dichloro-4-[3-(4-cyclopropyl-3,4-dihydro-2H-quinoxaline-1-carbonyl)-pyridin-2-yloxy]-phenyl}-acrylic acid]
47 nM	O=C(O)CCc1cc(Cl)c(Oc2ncccc2C(=O)N2CCN(C3CC3)c3ccccc32)cc1Cl [Example 173, 3-{2,5-Dichloro-4-[3-(4-cyclopropyl-3,4-dihydro-2H-quinoxaline-1-carbonyl)-pyridin-2-yloxy]-phenyl}-propionic acid]
29 nM	COC(=O)C/C=C/c1cc(Cl)c(Oc2ncccc2C(=O)N2CCN(C3CC3)c3ccccc32)cc1Cl [Example 174, 4-{2,5-Dichloro-4-[3-(4-cyclopropyl-3,4-dihydro-2H-quinoxaline-1-carbonyl)-pyridin-2-yloxy]-phenyl}-but-3-enoic acid methyl ester]
843 nM	O=C(O)C/C=C/c1cc(Cl)c(Oc2ncccc2C(=O)N2CCN(C3CC3)c3ccccc32)cc1Cl [Example 175, 4-{2,5-Dichloro-4-[3-(4-cyclopropyl-3,4-dihydro-2H-quinoxaline-1-carbonyl)-pyridin-2-yloxyl]-phenyl}-but-3-enoic acid]
114 nM	O=C(O)CCCc1cc(Cl)c(Oc2ncccc2C(=O)N2CCN(C3CC3)c3ccccc32)cc1Cl [Example 176, 4-{2,5-Dichloro-4-[3-(4-cyclopropyl-3,4-dihydro-2H-quinoxaline-1-carbonyl)-pyridin-2-yloxy]-phenyl}-butyric acid]
63 nM	O=C(O)CNC(=O)CCc1cc(Cl)c(Oc2ncccc2C(=O)N2CCN(C3CC3)c3ccccc32)cc1Cl [Example 177, (3-{2,5-Dichloro-4-[3-(4-cyclopropyl-3,4-dihydro-2H-quinoxaline-1-carbonyl)-pyridin-2-yloxy]-phenyl}-propionylamino)-acetic acid]
96 nM	CN(CC(=O)O)C(=O)CCc1cc(Cl)c(Oc2ncccc2C(=O)N2CCN(C3CC3)c3ccccc32)cc1Cl [Example 178, [(b 3-{2,5-Dichloro-4-[3-(4-cyclopropyl-3,4-dihydro-2H-quinoxaline-1-carbonyl)-pyridin-2-yloxy]-phenyl}-propionyl)-methyl-amino]-acetic acid]
41 nM	O=C(O)CCNC(=O)CCc1cc(Cl)c(Oc2ncccc2C(=O)N2CCN(C3CC3)c3ccccc32)cc1Cl [Example 179, 3-(3-{2,5-Dichloro-4-[3-(4-cyclopropyl-3,4-dihydro-2H-quinoxaline-1-carbonyl)-pyridin-2-yloxy]-phenyl}-propionylamino)-propionic acid]
71 nM	O=C(O)C1CCCN1C(=O)CCc1cc(Cl)c(Oc2ncccc2C(=O)N2CCN(C3CC3)c3ccccc32)cc1Cl (stereo not shown) [Example 180, 1-(3-{2,5-Dichloro-4-[3-(4-cyclopropyl-3,4-dihydro-2H-quinoxaline-1-carbonyl)-pyridin-2-yloxy]-phenyl}-propionyl)-pyrrolidine-2-carboxylic acid]
91 nM	O=C(O)CCNC(=O)CCCc1cc(Cl)c(Oc2ncccc2C(=O)N2CCN(C3CC3)c3ccccc32)cc1Cl [Example 181, 3-(4-{2,5-Dichloro-4-[3-(4-cyclopropyl-3,4-dihydro-2H-quinoxaline-1-carbonyl)-pyridin-2-yloxy]-phenyl}-butyrylamino)-propionic acid]
181 nM	COC(=O)c1cc(Cl)c(Oc2ncccc2C(=O)N2CCN(C3CC3)c3ccccc32)cc1Cl [Example 182, 2,5-Dichloro-4-[3-(4-cyclopropyl-3,4-dihydro-2H-quinoxaline-1-carbonyl)-pyridin-2-yloxy]-benzoic acid methyl ester]
341 nM	COC(=O)CNC(=O)c1cc(Cl)c(Oc2ncccc2C(=O)N2CCN(C3CC3)c3ccccc32)cc1Cl [Example 183, {2,5-Dichloro-4-[3-(4-cyclopropyl-3,4-dihydro-2H-quinoxaline-1-carbonyl)-pyridin-2-yloxy]-benzoylamino}-acetic acid methyl ester]
22 nM	O=C(c1ccccc1Oc1cc(Cl)ccc1Cl)N1CCN(C2CC2)c2ccccc21 [Example 184, (4-Cyclopropyl-3,4-dihydro-2H-quinoxalin-1-yl)-[2-(2,5-dichloro-phenoxy)-phenyl]-methanone]
92 nM	O=C(c1ccncc1Oc1cc(Cl)ccc1Cl)N1CCOc2ccccc21 [Example 185, [3-(2,5-Dichloro-phenoxy)-pyridin-4-yl]-(2,3-dihydro-benzo[1,4]oxazin-4-yl)-methanone]
